In patent US9125913B2, “Bcl-2-selective apoptosis-inducing agents for the treatment of cancer and immune diseases” (AbbVie Inc., priority 2008, dated 2015):

Test system: GST-Bcl-2
Assay: TR-FRET binding assay, Bcl-2
Conditions: TR-FRET Ki values
Summary of the method: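 Compounds serially diluted in DMSO from 50 μM (2× starting concentration, 10% DMSO), mixed with GST-tagged protein, F-Bak peptide probe and Tb-labeled antibody, incubated 3 h at room temperature.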

| SMILES | Binding selectivity ratio (Bcl-XL Ki/Bcl-2 Ki) |
| --- | --- |
| CN(C)C1(CNc2ccc(S(=O)(=O)NC(=O)c3ccc(N4CCN(CC5=C(c6ccc(Cl)cc6)CC(C)(C)CC5)CC4)cc3Oc3ccc4[nH]ccc4c3)cc2[N+](=O)[O-])CCOCC1 [EXAMPLE 207, 4-(4-{[2-(4-chlorophenyl)-4,4-dimethylcyclohex-1-en-1-yl]methyl}piperazin-1-yl)-N-{[4-({[4-(dimethylamino)tetrahydro-2H-pyran-4-yl]methyl}amino)-3-nitrophenyl]sulfonyl}-2-(1H-indol-5-yloxy)benzamide] | >3021.3 |
| CN1CCN(Nc2ccc(S(=O)(=O)NC(=O)c3ccc(N4CCN(CC5=C(c6ccc(Cl)cc6)CC(C)(C)CC5)CC4)cc3Oc3cccc4[nH]cnc34)cc2[N+](=O)[O-])CC1 [EXAMPLE 453, 2-(1H-benzimidazol-4-yloxy)-4-(4-{[2-(4-chlorophenyl)-4,4-dimethylcyclohex-1-en-1-yl]methyl}piperazin-1-yl)-N-({4-[(4-methylpiperazin-1-yl)amino]-3-nitrophenyl}sulfonyl)benzamide] | 363.04 |
| CC1(C)CCC(CN2CCN(c3ccc(C(=O)NS(=O)(=O)c4cnc(OCC5CCOCC5)c(Cl)c4)c(Oc4cccc5[nH]ccc45)c3)CC2)=C(c2ccc(Cl)cc2)C1 [EXAMPLE 387, 4-(4-{[2-(4-chlorophenyl)-4,4-dimethylcyclohex-1-en-1-yl]methyl}piperazin-1-yl)-N-{[5-chloro-6-(tetrahydro-2H-pyran-4-ylmethoxy)pyridin-3-yl]sulfonyl}-2-(1H-indol-4-yloxy)benzamide] | 1723.4 |
| CC1(C)CCC(CN2CCN(c3ccc(C(=O)NS(=O)(=O)c4ccc(NC5CCN(C6CCOCC6)CC5)c([N+](=O)[O-])c4)c(Oc4cccc5[nH]cnc45)c3)CC2)=C(c2ccc(Cl)cc2)C1 [EXAMPLE 417, 2-(1H-benzimidazol-4-yloxy)-4-(4-{[2-(4-chlorophenyl)-4,4-dimethylcyclohex-1-en-1-yl]methyl}piperazin-1-yl)-N-({3-nitro-4-[(1-tetrahydro-2H-pyran-4-ylpiperidin-4-yl)amino]phenyl}sulfonyl)benzamide] | 87.06 |
| COCCOCCSc1ccc(S(=O)(=O)NC(=O)c2ccc(N3CCN(CC4=C(c5ccc(Cl)cc5)CC(C)(C)CC4)CC3)cc2Oc2ccc3[nH]ccc3c2)cc1[N+](=O)[O-] [EXAMPLE 380, 4-(4-{[2-(4-chlorophenyl)-4,4-dimethylcyclohex-1-en-1-yl]methyl}piperazin-1-yl)-2-(1H-indol-5-yloxy)-N-[(4-{[2-(2-methoxyethoxy)ethyl]thio}-3-nitrophenyl)sulfonyl]benzamide] | 2107.3 |
| CN(C)CC#Cc1ccc(-c2ccc(Cl)cc2)c(CN2CCN(c3ccc(C(=O)NS(=O)(=O)c4ccc(NCC5CCOCC5)c([N+](=O)[O-])c4)c(Oc4cccc5[nH]ccc45)c3)CC2)c1 [EXAMPLE 209, 4-[4-({4′-chloro-4-[3-(dimethylamino)prop-1-ynyl]-1,1′-biphenyl-2-yl}methyl)piperazin-1-yl]-2-(1H-indol-4-yloxy)-N-({3-nitro-4-[(tetrahydro-2H-pyran-4-ylmethyl)amino]phenyl}sulfonyl)benzamide] | >2476.0 |
| O=C(NS(=O)(=O)c1ccc(NC2CCN(C3CCOCC3)CC2)c([N+](=O)[O-])c1)c1ccc(N2CCN(Cc3ccc(C(F)(F)F)cc3-c3ccc(Cl)cc3)CC2)cc1Oc1ccc2[nH]ccc2c1 [EXAMPLE 358, 4-(4-{[4′-chloro-5-(trifluoromethyl)-1,1′-biphenyl-2-yl]methyl}piperazin-1-yl)-2-(1H-indol-5-yloxy)-N-({3-nitro-4-[(1-tetrahydro-2H-pyran-4-ylpiperidin-4-yl)amino]phenyl}sulfonyl)benzamide] | >121.8 |
